Where a name gives a salt, the structure may show the parent alone.
molecular target: T1, human CGT (ceramide galactosyltransferase), CHO/CGT lysate (Homo sapiens, UniProt Q16880); experiment: CGT enzyme assay, LC-MS/MS readout (Table 1 ranges without asterisk); format: biochemical; details: LC-MS/MS method (range without asterisk)
T1 construct: Full-length human CGT cDNA was cloned into the BamH1/Xho1 site of pcDNA3.1 (+); expressed in transfected cells; host or cells: Chinese hamster ovary (CHO) cells; lysate prepared with M-PER
T1 sequence (Q16880 21-541): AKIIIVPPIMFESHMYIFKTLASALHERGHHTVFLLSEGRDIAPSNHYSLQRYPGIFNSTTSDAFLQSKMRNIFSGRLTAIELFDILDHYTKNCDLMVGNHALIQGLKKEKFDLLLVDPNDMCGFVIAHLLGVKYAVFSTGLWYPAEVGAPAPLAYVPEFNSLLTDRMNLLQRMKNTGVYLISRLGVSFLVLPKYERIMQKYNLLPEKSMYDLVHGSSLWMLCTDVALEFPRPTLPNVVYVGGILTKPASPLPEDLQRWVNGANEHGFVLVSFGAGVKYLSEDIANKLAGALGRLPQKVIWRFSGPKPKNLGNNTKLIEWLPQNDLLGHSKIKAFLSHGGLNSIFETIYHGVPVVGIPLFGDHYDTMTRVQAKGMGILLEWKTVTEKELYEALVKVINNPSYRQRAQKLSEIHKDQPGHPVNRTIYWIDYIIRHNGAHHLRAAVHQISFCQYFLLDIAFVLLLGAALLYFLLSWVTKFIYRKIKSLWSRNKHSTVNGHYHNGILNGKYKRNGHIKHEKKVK
Description: Full-length human CGT cDNA was cloned into the BamH1/Xho1 site of pcDNA3.1 (+) mammalian expression vector (V90-20, Invitrogen, Carlsbad, Calif.) and the plasmid was transfected into Chinese hamster ovary (CHO) cells. Lysate was prepared using M-PER (Mammalian Protein Extraction Reagent, ThermoFisher Scientific, Grand Island, N.Y.) in the presence of a protease inhibitor cocktail (P8340, Sigma, Saint Louis, Mo.). Each 100 mm dish (100% confluent, approximately 1×10^7 cells) was lysed with 250 μL of M-PER containing protease inhibitors. Protein concentration was determined using a Pierce BCA protein assay kit (ThermoFisher Scientific). Four micrograms of CHO/CGT lysate was incubated with various concentrations of a compound (0.001 μM-50 μM) in 10 mM HEPES (pH 7.2) containing 35 μM dioleoylphosphatidylcholine, 5 mM MgCl2, 5 mM MnCl2, 1% BSA, 15 mM KCl, 1 mM EGTA, 8 mM CHAPS, 10 μM C6-NBD-dihydro-ceramide and 17.5 μM UDP-galactose in a final reaction volume of 20 μL at 37° C. for 1 hour. The final concentration of DMSO was 0.5% in both compound-treated and mock-treated samples. Tween 80 (0.01%) was optionally added to the reaction mixture to help solubilize the compounds. Each individual reaction was diluted with 80 μL of methanol:acetronitrile (1:3) containing 5 μM N-docdecanoyl-NBD-galactosylceramide (internal standard) to stop the reaction. 200 μL H2O:acetonitile (1:1) was added to precipitate the protein. After sufficient mixing, the plates were centrifuged at 2469 g for 38 minutes, 200 μL of supernatant was transferred to a LC/MS 96-deep well plate and a second spin was performed at 2469 g for 10 minutes. The final supernatant was injected in triplicate for RapidFire/MS/MS analysis.
An alternative LC-MS/MS based method was also used. For the LC-MS/MS readout, the CGT assay was identical to the one described above except for the following: […] was used as the CGT enzyme source, C12:0 (2R—OH) ceramide was used as the ceramide substrate and 0.3 μM Cl2 ceramide was used as the internal standard. Tween 80 was not present in the reaction mixture. The final supernatant was injected for LC-MS/MS analysis.
Quantitative analysis using the LC-MS/MS method: The quantitative analysis of C12:0 (2R—OH) ceramide and C12:0 (2R—OH) galactosylceramide by LC-MS/MS was performed on a Shimadzu ultra-fast liquid chromatography (Shimadzu, Japan) coupled with API 4000 mass spectrometer (Applied Biosystems, Concord, Ontario, Canada). Analyst 1.5 software packages (Applied Biosystems) were used to control the LC-MS/MS system, as well as for data acquisition and processing. 10 μL of sample was loaded onto a Luna C18 column (50 mm×2.0 mm, I.D. 3 μm, 100A) (Phenomenex, USA) for chromatographic separation. Mobile phase A consisted of HPLC grade water with 0.1% formic acid (v/v) and mobile phase B consisted of acetonitrile supplemented with 0.1% formic acid (v/v). The separation was achieved using the following gradient program at a flow rate of 0.8 mL/min: the initial mobile phase was 70% B, which was increased in a linear fashion to 95% B in 1.50 min, and then maintained at 95% B until 3.50 min. The mobile phase was then reset to 70% B within 0.01 min, and maintained until 4.50 min. The total run time was 4.50 min. The MS/MS detection was performed in ESI positive mode. The mass transition selected for quantification was m/z 498.5-264.3 for C12:0 (2R—OH) ceramide under the collision energy of 38.8 V, and the mass transition of C12:0 (2R—OH) galactosylceramide was m/z 660.6-264.5 under the collision energy of 51 V. The mass transition of Cl2 ceramide which was used as internal standard was m/z 482.4-264.3 under the collision energy of 33V. Compound IC50 values were calculated using a protocol identical to the one described for the RapidFire method (see Table 1, where data ranges without an asterix correspond to analysis using the LC-MS/MS method).
Using the above CGT enzyme and CGT cellular assays, the compounds of Table 1 were tested. […]

`NC1CC2CCC(C1)N2C(=O)[C@H](NS(=O)(=O)c1ccc2cc(OC3CCCC3)ccc2c1)C(F)(F)c1ccc(Br)cc1` (stereo partly drawn) [Compound 5-2, N-((2S)-3-(3-amino-8-azabicyclo[3.2.1]octan-8-yl)-1-(4-bromophenyl)-1,1-difluoro-3-oxopropan-2-yl)-6-(cyclopentyloxy)naphthalene-2-sulfonamide trifluoroacetate] and `CC(C)COc1ccc2cc(S(=O)(=O)N[C@H](C(=O)N3C4CCC3CC(N)C4)C(F)(F)c3ccc(Br)cc3)ccc2c1` (stereo partly drawn) [Compound 7-1, N-((2R)-3-(3-amino-8-azabicyclo[3.2.1]octan-8-yl)-1-(4-bromophenyl)-1,1-difluoro-3-oxopropan-2-yl)-6-isobutoxynaphthalene-2-sulfonamide] fall in the same range of IC50: 1 to 10 µM for the first, 1 to 10 µM for the second.

Compared with `CCCCOc1ccc2cc(S(=O)(=O)N[C@H](C(=O)N3C4CCC3CC(N)C4)C(F)(F)c3ccc(Br)cc3)ccc2c1` (stereo partly drawn) [Compound 6-1, N-((2R)-3-(3-amino-8-azabicyclo[3.2.1]octan-8-yl)-1-(4-bromophenyl)-1,1-difluoro-3-oxopropan-2-yl)-6-butoxynaphthalene-2-sulfonamide trifluoroacetate], `CCCCOc1ccc2cc(S(=O)(=O)N[C@@H](C(=O)N3C4CCC3CC(N)C4)C(F)(F)c3ccc(Br)cc3)ccc2c1` (stereo partly drawn) [Compound 6-2, N-((2S)-3-(3-amino-8-azabicyclo[3.2.1]octan-8-yl)-1-(4-bromophenyl)-1,1-difluoro-3-oxopropan-2-yl)-6-butoxynaphthalene-2-sulfonamide trifluoroacetate] is higher in IC50: 1 to 10 µM for the first, 30 to 100 µM for the second. The first is the more potent here.

Compared with `CC(C)COc1ccc2cc(S(=O)(=O)N[C@@H](C(=O)N3C4CCC3CC(N)C4)C(F)(F)c3ccc(Br)cc3)ccc2c1` (stereo partly drawn) [Compound 7-2, N-((2S)-3-(3-amino-8-azabicyclo[3.2.1]octan-8-yl)-1-(4-bromophenyl)-1,1-difluoro-3-oxopropan-2-yl)-6-isobutoxynaphthalene-2-sulfonamide], `CC[C@@H](C)Oc1ccc2cc(S(=O)(=O)N[C@H](C(=O)N3C4CCC3CC(N)C4)C(F)(F)c3ccc(Br)cc3)ccc2c1` (stereo partly drawn) [Compound 13-1, N-((2R)-3-(3-amino-8-azabicyclo[3.2.1]octan-8-yl)-1-(4-bromophenyl)-1,1-difluoro-3-oxopropan-2-yl)-6-((R)-sec-butoxy)naphthalene-2-sulfonamide] is lower in IC50: 30 to 100 µM for the first, 1 to 10 µM for the second. The second is the more potent here.

`CC(C)Oc1ccc2cc(S(=O)(=O)N[C@@H](C(=O)N3C4CCC3CC(N)C4)C(F)(F)c3ccc(Cl)cc3)ccc2c1` (stereo partly drawn) [Compound 8-2, N-((2S)-3-(3-amino-8-azabicyclo[3.2.1]octan-8-yl)-1-(4-chlorophenyl)-1,1-difluoro-3-oxopropan-2-yl)-6-isopropoxynaphthalene-2-sulfonamide trifluoroacetate] and `CC[C@H](C)Oc1ccc2cc(S(=O)(=O)N[C@@H](C(=O)N3C4CCC3CC(N)C4)C(F)(F)c3ccc(Br)cc3)ccc2c1` (stereo partly drawn) [Compound 13-2, N-((2S)-3-(3-amino-8-azabicyclo[3.2.1]octan-8-yl)-1-(4-bromophenyl)-1,1-difluoro-3-oxopropan-2-yl)-6-((S)-sec-butoxy)naphthalene-2-sulfonamide] fall in the same range of IC50: 10 to 30 µM for the first, 10 to 30 µM for the second.

Compared with `CC(C)Oc1ccc2cc(C(=O)C(=O)N[C@H](C(=O)N3C4CCC3CC(N)C4)C(F)(F)c3ccc(Br)cc3)ccc2c1` (stereo partly drawn) [Compound 9-1, N-((2R)-3-(3-amino-8-azabicyclo[3.2.1]octan-8-yl)-1-(4-bromophenyl)-1,1-difluoro-3-oxopropan-2-yl)-2-(6-isopropoxynaphthalen-2-yl)-2-oxoacetamide trifluoroacetate], `CC(C)Oc1ccc2cc(C(=O)C(=O)N[C@@H](C(=O)N3C4CCC3CC(N)C4)C(F)(F)c3ccc(Br)cc3)ccc2c1` (stereo partly drawn) [Compound 9-2, N-((2S)-3-(3-amino-8-azabicyclo[3.2.1]octan-8-yl)-1-(4-bromophenyl)-1,1-difluoro-3-oxopropan-2-yl)-2-(6-isopropoxynaphthalen-2-yl)-2-oxoacetamide trifluoroacetate] is higher in IC50: 10 to 30 µM for the first, 30 to 100 µM for the second. The first is the more potent here.

First: NC1CC2CCC(C1)N2C(=O)[C@@H](NS(=O)(=O)c1ccc2cc(Oc3ccccn3)ccc2c1)C(F)(F)c1ccc(Br)cc1 (stereo partly drawn) [Compound 10-1, N-((2R)-3-(3-amino-8-azabicyclo[3.2.1]octan-8-yl)-1-(4-bromophenyl)-1,1-difluoro-3-oxopropan-2-yl)-6-(pyridin-2-yloxy)naphthalene-2-sulfonamide trifluoroacetate]
Second: CC[C@H](C)Oc1ccc2cc(S(=O)(=O)N[C@H](C(=O)N3C4CCC3CC(N)C4)C(F)(F)c3ccc(Br)cc3)ccc2c1 (stereo partly drawn) [Compound 13-3, N-((2R)-3-(3-amino-8-azabicyclo[3.2.1]octan-8-yl)-1-(4-bromophenyl)-1,1-difluoro-3-oxopropan-2-yl)-6-((S)-sec-butoxy)naphthalene-2-sulfonamide]
The IC50 of the first is higher: 30 to 100 µM for the first, 1 to 10 µM for the second.

First: NC1CC2CCC(C1)N2C(=O)[C@@H](NS(=O)(=O)c1ccc(OCc2ccccc2)cc1)C(F)(F)c1ccc(Br)cc1 (stereo partly drawn) [Compound 11-1, N-((2R)-3-(3-amino-8-azabicyclo[3.2.1]octan-8-yl)-1-(4-bromophenyl)-1,1-difluoro-3-oxopropan-2-yl)-4-(benzyloxy)benzenesulfonamide trifluoroacetate]
Second: NC1CC2CCC(C1)N2C(=O)[C@H](NS(=O)(=O)c1ccc(OCc2ccccc2)cc1)C(F)(F)c1ccc(Br)cc1 (stereo partly drawn) [Compound 11-2, N-((2S)-3-(3-amino-8-azabicyclo[3.2.1]octan-8-yl)-1-(4-bromophenyl)-1,1-difluoro-3-oxopropan-2-yl)-4-(benzyloxy)benzenesulfonamide trifluoroacetate]
The IC50 of the first is lower: 10 to 30 µM for the first, 30 to 100 µM for the second.

`NC1CC2CCC(C1)N2C(=O)[C@@H](NS(=O)(=O)c1ccc(OCC2CCCCC2)cc1)C(F)(F)c1ccc(Br)cc1` (stereo partly drawn) [Compound 12-1, N-((2R)-3-(3-amino-8-azabicyclo[3.2.1]octan-8-yl)-1-(4-bromophenyl)-1,1-difluoro-3-oxopropan-2-yl)-4-(cyclohexylmethoxy)benzenesulfonamide trifluoroacetate] and `CC[C@@H](C)Oc1ccc2cc(S(=O)(=O)N[C@@H](C(=O)N3C4CCC3CC(N)C4)C(F)(F)c3ccc(Br)cc3)ccc2c1` (stereo partly drawn) [Compound 13-4, N-((2S)-3-(3-amino-8-azabicyclo[3.2.1]octan-8-yl)-1-(4-bromophenyl)-1,1-difluoro-3-oxopropan-2-yl)-6-((R)-sec-butoxy)naphthalene-2-sulfonamide] fall in the same range of IC50: 10 to 30 µM for the first, 10 to 30 µM for the second.

Source: patent US20190322676A1, “CERAMIDE GALACTOSYLTRANSFERASE INHIBITORS FOR THE TREATMENT OF DISEASE” (BioMarin Pharmaceutical Inc., priority 2016, published 2019)
